Experiments:
Cox2 = Cox2 protein level by Western blot in TNFα-induced HaCaT cells; type: cell-based, human; conditions: TNFα 20 nM, peptide at 5 μM and 50 μM, 24 hours, compared to group not treated with TNFα
Experimental: In order to confirm the anti-inflammatory effect of treatment with the peptides of the present invention having the amino acid sequence of SEQ ID NO: 1, inflammation was induced in HaCaT cells, which are human keratinocytes, and the expression level of Cox2 protein was confirmed. In order to induce inflammation, the cells were treated with TNFα, which is an inflammation-inducing cytokine, and since Cox2 is an enzyme involved in the synthesis of prostaglandins corresponding to an inflammation-related protein, it is possible to confirm whether inflammation is inhibited by measuring the expression level of Cox2.
HaCaT cells were dispensed into a 24-well plate at a concentration of 3× 10^5 cells/well and cultured until the next day. The medium was replaced with serum-free medium, and after 4 hours, the cells were treated with TNFα and the peptide of the present invention and cultured again for another 24 hours. In order to induce inflammation, the cells were treated with TNFα at 20 nM, and treated with the peptide at 5 μM and 50 μM, respectively. […] In order to perform Western blotting, the amount of Cox2 protein was measured using an anti-Cox2 antibody (Cell Signaling Technology, USA). […]

TNFα = TNFα mRNA level by RT-PCR in LPS-induced mouse splenocytes; type: cell-based; conditions: LPS 2 μg/mL, peptide at 5 μM and 50 μM, 24 hours, compared to group not treated with the peptide
Experimental: Inflammation was induced in mouse splenocytes, and the expression levels of TNFα, and IL-6 genes, which is the inflammatory cytokines were confirmed. In order to induce inflammation, the cells were treated with LPS, an inflammation-inducing antigen, and since TNFα corresponds to a signaling protein associated with inflammation, and IL-6 corresponds to a cytokine that promotes inflammation, the degree of inflammation can be confirmed by measuring the expression levels of TNFα and IL-6 genes.
Mouse splenocytes were dispensed into a 24-well plate at a concentration of 1×10^7 cells/well and cultured until the next day. The medium was replaced with serum-free medium, and after 3 hours, the cells were treated with LPS and the peptide of the present invention and then cultured again for another 24 hours. In order to induce inflammation, the cells were treated with LPS at 2 μg/mL, and the peptide at […] and 50 μM, respectively. […] After quantifying the amount of isolated RNA, cDNA was synthesized using a cDNA synthesis kit (Intron, Korea), PCR was performed using a PCR premix (Intron, Korea) and primers for TNFα, and IL-6. […]

IFNγ [1] = test: IFNγ secretion by ELISA in LPS-induced mouse splenocytes; type: cell-based; conditions: LPS 2 μg/mL, peptide at 5 μM and 50 μM, 24 hours
Experimental: Inflammation was induced in mouse splenocytes, and the secretion amounts of inflammatory cytokines TNFα, IL-1β, and IFNγ were confirmed. In order to induce inflammation, the cells were treated with an inflammation-inducing antigen, LPS, and since TNFα corresponds to a signaling protein associated with inflammation, IL-1β corresponds to a cytokine that promotes inflammation, and IFNγ also corresponds to a cytokine that promotes inflammation, the degree of inflammation can be confirmed by measuring the secretion amounts of TNFα, IL-1B, and IFNγ.
Mouse splenocytes were dispensed into a 24-well plate at a concentration of 1×10^7 cells/well and cultured until the next day. The medium was replaced with serum-free medium, and after 4 hours, the cells were treated with LPS and the peptide of the present invention and then cultured again for another 24 hours. In order to induce inflammation, the cells were treated with LPS at 2 μg/mL, and the peptide at 5 μM and 50 μM, respectively. […]

IL-17 = IL-17 secretion by ELISA in TNFα-induced mouse splenocytes; type: cell-based; conditions: TNFα 20 nM, 24 hours
Experimental: (§1) Inflammation was induced by treating mouse splenocytes with the inflammatory cytokine TNFα, and the secretion amounts of the inflammatory cytokines IL-17, IL-1B, and IFNγ were confirmed. IL-17 corresponds to a pro-inflammatory cytokine, and the descriptions of IL-1β and IFNγ are the same as above.
(§2) Mouse splenocytes were dispensed into a 24-well plate at a concentration of 1×10^7 cells/well and cultured until the next day. The medium was replaced with serum-free medium, and after 4 hours, the cells were treated with TNFα and the peptide of the present invention and then cultured again for another 24 hours. In order to induce inflammation, the cells were treated with TNFα at 20 nM, and the peptide at 5 μM and 50 μM, respectively. The mouse splenocytes in the group in which inflammation was not induced due to untreatment with TNFα (NON); the negative control group in which the cells were treated with TNFα but not treated with the peptide (NC); and the group in which the cells were treated with TNFα along with the peptide of the present invention at the same concentration as above, respectively, were reacted as described above and the cell cultures were recovered. […]

IFNγ [2] = test: IFNγ secretion by ELISA in TNFα-induced mouse splenocytes; type: cell-based; conditions: TNFα 20 nM, 24 hours
Experimental: as §1, §2

## TWNS [peptide of the present invention]
Cox2
  expression level of Cox2 protein: decreased
TNFα
  mRNA expression level of TNFα: decreased
IFNγ [1]
  secretion amount of IFNγ: decreased
IL-17; peptide at 5 μM
  secretion amount of IL-17: slightly increased
IL-17; peptide at 50 μM
  secretion amount of IL-17: decreased
IFNγ [2]; peptide at 5 μM
  secretion amount of IFNγ: decreased
IFNγ [2]; peptide at 50 μM
  secretion amount of IFNγ: decreased
